According to ChEMBL document CHEMBL3880392, “Tropane-derivatives, their preparation and use” (2002):

Assays:
Assay type in all cases: subcellular
[1] = target: Sodium-dependent dopamine transporter (Rattus norvegicus) (UniProt P23977); experiment: Inhibition of re-uptake of [3H]dopamine at DAT in Wistar rat corpus striatum synaptosomes by liquid scintillation counting relative to untreated control; conditions: concentration not given here
[2] = target: Sodium-dependent serotonin transporter (Rattus norvegicus) (UniProt P31652); experiment: Inhibition of re-uptake of [3H]5-hydroxytryptamine at SERT in Wistar rat cortical synaptosomes by liquid scintillation counting relative to untreated control; conditions: concentration not given here
[3] = target: Transporter (Rattus norvegicus) (UniProt F1LNR9); experiment: Inhibition of re-uptake of [3H]noradrenaline at NET in Wistar rat hippocampal synaptosomes by liquid scintillation counting relative to untreated control; conditions: Hippocampus, concentration not given here

Measured: inhibition

Sequence of Sodium-dependent dopamine transporter (Rattus norvegicus) (P23977 whole entry): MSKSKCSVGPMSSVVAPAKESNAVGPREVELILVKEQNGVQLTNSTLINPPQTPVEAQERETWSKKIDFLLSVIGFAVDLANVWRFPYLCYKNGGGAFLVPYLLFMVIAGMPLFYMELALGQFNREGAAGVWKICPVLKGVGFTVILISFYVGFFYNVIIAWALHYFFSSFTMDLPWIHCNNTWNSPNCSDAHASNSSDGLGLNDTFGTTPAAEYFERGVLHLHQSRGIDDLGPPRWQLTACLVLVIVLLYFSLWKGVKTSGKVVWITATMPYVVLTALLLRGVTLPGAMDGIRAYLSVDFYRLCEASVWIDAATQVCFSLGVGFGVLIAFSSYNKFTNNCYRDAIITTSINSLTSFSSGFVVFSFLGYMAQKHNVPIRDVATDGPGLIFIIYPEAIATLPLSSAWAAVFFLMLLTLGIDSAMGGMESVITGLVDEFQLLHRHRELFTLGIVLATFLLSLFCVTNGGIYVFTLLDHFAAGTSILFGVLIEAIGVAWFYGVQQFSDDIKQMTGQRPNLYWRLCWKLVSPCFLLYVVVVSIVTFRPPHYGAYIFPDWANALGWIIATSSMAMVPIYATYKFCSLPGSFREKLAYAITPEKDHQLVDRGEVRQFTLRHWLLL
Sequence of Transporter (Rattus norvegicus) (F1LNR9 as listed by the source): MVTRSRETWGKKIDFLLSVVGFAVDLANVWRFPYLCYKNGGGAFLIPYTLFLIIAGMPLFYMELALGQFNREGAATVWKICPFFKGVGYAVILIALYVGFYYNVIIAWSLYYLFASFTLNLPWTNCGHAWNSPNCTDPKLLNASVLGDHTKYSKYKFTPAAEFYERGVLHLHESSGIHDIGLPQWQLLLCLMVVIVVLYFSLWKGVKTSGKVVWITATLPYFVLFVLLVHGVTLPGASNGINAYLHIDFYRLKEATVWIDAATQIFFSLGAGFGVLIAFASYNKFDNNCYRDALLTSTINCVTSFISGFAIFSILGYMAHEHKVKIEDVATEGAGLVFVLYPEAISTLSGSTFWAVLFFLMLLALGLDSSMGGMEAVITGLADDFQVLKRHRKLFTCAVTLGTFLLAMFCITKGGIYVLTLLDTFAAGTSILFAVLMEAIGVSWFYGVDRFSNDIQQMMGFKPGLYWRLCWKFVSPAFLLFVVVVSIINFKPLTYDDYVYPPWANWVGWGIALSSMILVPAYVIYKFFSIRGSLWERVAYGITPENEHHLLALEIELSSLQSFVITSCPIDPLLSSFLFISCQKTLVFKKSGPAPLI
Sequence of Sodium-dependent serotonin transporter (Rattus norvegicus) (P31652 whole entry): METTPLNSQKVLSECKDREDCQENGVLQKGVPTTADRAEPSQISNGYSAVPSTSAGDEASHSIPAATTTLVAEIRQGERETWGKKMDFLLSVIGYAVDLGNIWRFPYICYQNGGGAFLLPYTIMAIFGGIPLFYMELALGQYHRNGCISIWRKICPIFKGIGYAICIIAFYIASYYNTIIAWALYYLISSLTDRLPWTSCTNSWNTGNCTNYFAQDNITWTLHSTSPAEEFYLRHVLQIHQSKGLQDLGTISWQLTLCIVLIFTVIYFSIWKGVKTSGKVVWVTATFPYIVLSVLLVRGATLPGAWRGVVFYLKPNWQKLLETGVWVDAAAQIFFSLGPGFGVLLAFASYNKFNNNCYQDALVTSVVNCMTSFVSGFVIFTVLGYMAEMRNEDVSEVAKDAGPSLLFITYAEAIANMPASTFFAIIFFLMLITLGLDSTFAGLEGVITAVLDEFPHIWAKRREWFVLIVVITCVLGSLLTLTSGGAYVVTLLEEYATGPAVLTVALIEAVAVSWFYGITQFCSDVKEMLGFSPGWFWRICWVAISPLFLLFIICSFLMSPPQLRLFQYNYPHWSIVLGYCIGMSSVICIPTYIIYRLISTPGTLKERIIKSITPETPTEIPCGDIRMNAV

COC[C@@H]1[C@@H](c2ccc(Cl)c(Cl)c2)C[C@@H]2CC[C@H]1N2C
25 to 75%: all assays above

CN1[C@H]2CC[C@@H]1[C@H](CSc1ccccc1)[C@@H](c1ccc(Cl)c(Cl)c1)C2
25 to 75%: all assays above

CCOC[C@@H]1[C@@H](c2ccc(Cl)c(Cl)c2)C[C@@H]2CC[C@H]1N2C
25 to 75%: all assays above
